This passage reports LAMAM plant response, VIOAR plant response and SASKR plant response results from patent publication US9302999B2, “Substituted triazoles as herbicides” (E. I. DU PONT DE NEMOURS AND COMPANY, priority 2012, dated 2016).

Common to all, as to type: in vivo
Assay [1] relates to Henbit Deadnettle (LAMAM, Lamium amplexicaule). Description: Test H post-emergence, alone and in combination: Henbit Deadnettle. The source says:
(§1) Seeds of plant species selected from wheat (TRZAW, Triticum aestivum), barley (HORBW, Hordeum vulgare), Kochia (KCHSC, Kochia caoparia) blackgrass (ALOMY, Alopecurus myosuroides), canarygrass (PHAMI, Phalaris minor), Italian ryegrass (LOLMU, Lolium multiflorum) common lambsquarter (CHEAL, Chenopodium album), pigweed (AMARE, Amaranthus retroflexus), Common Chickweed (STEME, Stellaria media), Russian thistle (SASKR, Salsola iberica), Wild Buckwheat (POLCO, Polygonum convolvulus), Catchweed Bedstraw (GALAP, Galium aparine), Mustard (SINAR, Sinapisar arvensis), Henbit Deadnettle (LAMAM, Lamium amplexicaule), Wild Radish (RAPRA, Raphanus raphanistrum), Field Poppy (PAPRH, Papaver rhoeas), Field Violet (VIOAR, Viola arvennsis), Scentless Chamomile (MATIN Matricaria inodora) were planted into soil and treated post-emergence with test chemicals formulated in a non-phytotoxic solvent mixture. Plants were grown in a greenhouse using supplemental lighting to maintain a photoperiod of approximately 14 hours; daytime and nighttime temperatures were approximately 23°-29° and 16°-19° Celsius, respectively. Balanced fertilizer was applied through the watering system. Treated plants and controls were maintained in a greenhouse for 20 days, after which time all species were compared to controls and visually evaluated. Plant response ratings were calculated as the mean of three replicates (unless otherwise indicated), are summarized in Table G, and are based on a scale of 0 to 100 where 0 is no effect and 100 is complete control. A dash (-) response means no test result.

The subject of assay [2] is Field Violet (VIOAR, Viola arvennsis). Description: Test H post-emergence, alone and in combination: Field Violet.
From the text: as §1

Assay [3] relates to Russian thistle (SASKR, Salsola iberica). Description: Test H post-emergence, alone and in combination: Russian thistle.
From the text: as §1

On to `Cc1nn(-c2ccc(F)cc2)nc1Oc1ccnc(C(F)(F)F)c1` [Compound 129, 4-[[2-(4-fluorophenyl)-5-methyl-2H-1,2,3-triazol-4-yl]oxy]-2-(trifluoromethyl)pyridine], for which the LAMAM plant response is reported as 60 in assay [1] (Rate 31), 70 in assay [1] (Rate 62) and 80 in assay [1] (Rate 125). For the same molecule, the values for the VIOAR plant response in assay [2] (Rate 31), in assay [2] (Rate 62) and in assay [2] (Rate 125) were 60, 75 and 90, respectively. Also, the values for the SASKR plant response in assay [3] (Rate 31), in assay [3] (Rate 62) and in assay [3] (Rate 125) were 65, 80 and 90, respectively.
